Reference: US9029325B2, “Amylin analogues and pharmaceutical compositions thereof” (Novo Nordisk A/S, priority 2011, dated 2015)
Starred links: 1 amine or outer side, 2 acyl side, 3 side chain; linkers in the order of their positions; H or OH if unused. Positions of bridges follow the written chain, without caps; N, C: chain ends. Residues, ends and D or L forms follow the SMILES beside them. *: point of attachment. C20 diacid = O=C(O)CCCCCCCCCCCCCCCCCCC(=O)*; γGlu = O=C(O)[C@H](CCC(=O)[*:2])N[*:1]

Experiment: Assay (III) ThT fibrillation assay for physical stability
Type: physicochemical
Details: for Th T pH 4.0 lag time (h): 37° C., orbital shaking 960 rpm; for ThT pH 4.0 lag time: Table 9
Text: Low physical stability of a polypeptide may lead to amyloid fibril formation, which is observed as well-ordered, thread-like macromolecular structures in the sample eventually resulting in gel formation. This has traditionally been measured by visual inspection of the sample. However, that kind of measurement is very subjective and depending on the observer. Therefore, the application of a small molecule indicator probe is much more advantageous. Thioflavin T (ThT) is such a probe and has a distinct fluorescence signature when binding to fibrils [Naiki et al. (1989) Anal. Biochem. 177, 244-249; LeVine (1999) Methods. Enzymol. […], 274-284].
The time course for fibril formation can be described by a sigmoidal curve with the following expression [Nielsen et al. (2001) Biochemistry 40, 6036-6046]:
[formula] Here, F is the ThT fluorescence at the time t. The constant t0 is the time needed to reach 50% of maximum fluorescence. The two important parameters describing fibril formation are the lag-time calculated by t0−2T and the apparent rate constant kapp=1/τ.
Few of those intermediates nucleate to form a template onto which further intermediates may assembly and the fibrillation proceeds. The lag-time corresponds to the interval in which the critical mass of nucleus is built up and the apparent rate constant is the rate with which the fibril itself is formed.
Samples were prepared freshly before each assay. Each sample composition is described in each example. The pH of the sample was adjusted to the desired value using appropriate amounts of concentrated NaOH and HClO4 or HCl. Thioflavin T was added to the samples from a stock solution in H2O to a final concentration of 1 μM.
Sample aliquots of 200 μl were placed in a 96 well microtiter plate (Packard OptiPlate™-96, white polystyrene). Usually, four or eight replica of each sample (corresponding to one test condition) were placed in one column of wells. The plate was sealed with Scotch Pad (Qiagen).
Incubation at given temperature, shaking and measurement of the ThT fluorescence emission were done in a Fluoroskan Ascent FL fluorescence platereader or Varioskan platereader (Thermo Labsystems). The temperature was adjusted to 37° C. The orbital shaking was adjusted to 960 rpm with an amplitude of 1 mm in all the presented data. Fluorescence measurement was done using excitation through a 444 nm filter and measurement of emission through a 485 nm filter.
Each run was initiated by incubating the plate at the assay temperature for 10 min. The plate was measured every 20 minutes for a desired period of time. Between each measurement, the plate was shaken and heated as described.
The measurement points were saved in Microsoft Excel format for further processing and curve drawing and fitting was performed using GraphPad Prism. The background emission from ThT in the absence of fibrils was negligible. The data points are typically a mean of four or eight samples and shown with standard deviation error bars. Only data obtained in the same experiment (i.e. samples on the same plate) are presented in the same graph ensuring a relative measure of fibrillation […].
The data set may be fitted to Eq. (1). However, since full sigmodial curves in this case are not always achieved during the measurement time, the degree of fibrillation is expressed as ThT fluorescence tabulated as the mean of the samples and shown with the standard deviation at various time points.
The polypeptide concentration in each of the tested formulations were measured both before application in the ThT fibrillation assay (“Initial”) and after completion of the ThT fibrillation (“After ThT assay”). Concentrations were determined by reverse HPLC methods using a pramlintide standard as a reference. Before measurement after completion 150 μl was collected from each of the replica and transferred to an Eppendorf tube. These were centrifuged at 30000 G for 40 mins. […]

| Th T pH 4.0 lag time (h) | ThT pH 4.0 lag time | SMILES |
| --- | --- | --- |
| 29 h |  | CC[C@H](C)[C@H](NC(=O)[C@@H]1CCCN1C(=O)CNC(=O)[C@H](Cc1ccccc1)NC(=O)[C@H](CC(N)=O)NC(=O)[C@H](CCC(N)=O)NC(=O)[C@H](CO)NC(=O)[C@H](CO)NC(=O)[C@H](Cc1c[nH]cn1)NC(=O)[C@H](Cc1c[nH]cn1)NC(=O)[C@H](CC(C)C)NC(=O)[C@H](Cc1ccccc1)NC(=O)[C@H](CCC(=O)O)NC(=O)[C@H](C)NC(=O)[C@H](CC(C)C)NC(=O)[C@H](CCCNC(=N)N)NC(=O)[C@H](CCC(N)=O)NC(=O)[C@@H](NC(=O)[C@H](C)NC(=O)[C@@H]1CSSC[C@H](NC(=O)CNC(=O)CC[C@H](NC(=O)CCCCCCCCCCCCCCCCCCC(=O)O)C(=O)O)C(=O)N[C@@H](CC(N)=O)C(=O)N[C@@H]([C@@H](C)O)C(=O)N[C@@H](C)C(=O)N[C@@H]([C@@H](C)O)C(=O)N1)[C@@H](C)O)C(=O)N[C@@H](CC(C)C)C(=O)N1CCC[C@H]1C(=O)N1CCC[C@H]1C(=O)N[C@H](C(=O)N[C@@H](CC(N)=O)C(=O)N[C@H](C(=O)NCC(=O)N[C@@H](CO)C(=O)N[C@@H](CCC(N)=O)C(=O)N[C@H](C(=O)N1CCC[C@H]1C(N)=O)[C@@H](C)O)C(C)C)[C@@H](C)O [Example 137, N-alpha-[(S)-4-Carboxy-4-(19-carboxynonadecanoylamino)butyryl]-[Gly1, Glu14, His17, Gln21, Gln35, Pro37]-pramlintide] ({C20 diacid-γGlu}-GCNTATCATQRLAEFLHHSSQNFGPILPPTNVGSQTP-NH2; disulfide 2-7) |
| >45 h | >45 hr | CC[C@H](C)[C@H](NC(=O)[C@@H]1CCCN1C(=O)CNC(=O)[C@H](Cc1ccccc1)NC(=O)[C@H](CC(N)=O)NC(=O)[C@H](CC(N)=O)NC(=O)[C@H](CO)NC(=O)[C@H](CO)NC(=O)[C@H](Cc1c[nH]cn1)NC(=O)[C@H](Cc1c[nH]cn1)NC(=O)[C@H](CC(C)C)NC(=O)[C@H](Cc1ccccc1)NC(=O)[C@H](CCC(=O)O)NC(=O)[C@H](C)NC(=O)[C@H](CC(C)C)NC(=O)[C@H](CCCCN)NC(=O)[C@H](CCC(N)=O)NC(=O)[C@@H](NC(=O)[C@H](C)NC(=O)[C@@H]1CSSC[C@H](NC(=O)[C@H](CCCCN)NC(=O)CC[C@H](NC(=O)CCCCCCCCCCCCCCCCCCC(=O)O)C(=O)O)C(=O)N[C@@H](CC(N)=O)C(=O)N[C@@H]([C@@H](C)O)C(=O)N[C@@H](C)C(=O)N[C@@H]([C@@H](C)O)C(=O)N1)[C@@H](C)O)C(=O)N[C@@H](CC(C)C)C(=O)N1CCC[C@H]1C(=O)N1CCC[C@H]1C(=O)N[C@H](C(=O)N[C@@H](CC(N)=O)C(=O)N[C@H](C(=O)NCC(=O)N[C@@H](CO)C(=O)N[C@@H](CC(N)=O)C(=O)N[C@H](C(=O)N1CCC[C@H]1C(N)=O)[C@@H](C)O)C(C)C)[C@@H](C)O [Example 145, N-alpha-[(S)-4-Carboxy-4-(19-carboxynonadecanoylamino)butyryl]-[Lys11, Glu14, His17, Pro37]-pramlintide] ({C20 diacid-γGlu}-KCNTATCATQKLAEFLHHSSNNFGPILPPTNVGSNTP-NH2; disulfide 2-7) |
| >45 h | >45 hr | CC[C@H](C)[C@H](NC(=O)[C@@H]1CCCN1C(=O)CNC(=O)[C@H](Cc1ccccc1)NC(=O)[C@H](CC(N)=O)NC(=O)[C@@H](NC(=O)[C@H](CO)NC(=O)[C@H](CO)NC(=O)[C@H](Cc1c[nH]cn1)NC(=O)[C@H](Cc1c[nH]cn1)NC(=O)[C@H](CC(C)C)NC(=O)[C@H](Cc1ccccc1)NC(=O)[C@H](CCC(=O)O)NC(=O)[C@H](C)NC(=O)[C@H](CC(C)C)NC(=O)[C@H](CCCNC(=N)N)NC(=O)[C@H](CCC(N)=O)NC(=O)[C@@H](NC(=O)[C@H](C)NC(=O)[C@@H]1CSSC[C@H](NC(=O)[C@H](CCCCN)NC(=O)CC[C@H](NC(=O)CCCCCCCCCCCCCCCCCCC(=O)O)C(=O)O)C(=O)N[C@@H](CC(N)=O)C(=O)N[C@@H]([C@@H](C)O)C(=O)N[C@@H](C)C(=O)N[C@@H]([C@@H](C)O)C(=O)N1)[C@@H](C)O)[C@@H](C)O)C(=O)N[C@@H](CC(C)C)C(=O)N1CCC[C@H]1C(=O)N1CCC[C@H]1C(=O)N[C@H](C(=O)N[C@@H](CC(N)=O)C(=O)N[C@H](C(=O)NCC(=O)N[C@@H](CO)C(=O)N[C@@H](CC(N)=O)C(=O)N[C@H](C(=O)N1CCC[C@H]1C(N)=O)[C@@H](C)O)C(C)C)[C@@H](C)O [Example 146, N-alpha-[(S)-4-Carboxy-4-(19-carboxynonadecanoylamino)butyryl]-[Glu14, His17, Thr21, Pro37]-pramlintide] ({C20 diacid-γGlu}-KCNTATCATQRLAEFLHHSSTNFGPILPPTNVGSNTP-NH2; disulfide 2-7 (inferred); C-terminus assumed) |
| >45 h |  | CC[C@H](C)[C@H](NC(=O)[C@@H]1CCCN1C(=O)CNC(=O)[C@H](Cc1ccccc1)NC(=O)[C@H](CC(N)=O)NC(=O)[C@H](CC(N)=O)NC(=O)[C@H](CO)NC(=O)[C@H](CO)NC(=O)[C@H](Cc1c[nH]cn1)NC(=O)[C@H](CCCNC(=N)N)NC(=O)[C@H](CC(C)C)NC(=O)[C@H](Cc1ccccc1)NC(=O)[C@H](CCC(=O)O)NC(=O)[C@H](C)NC(=O)[C@H](CC(C)C)NC(=O)[C@H](CCCNC(=N)N)NC(=O)[C@H](CCC(N)=O)NC(=O)[C@@H](NC(=O)[C@H](C)NC(=O)[C@@H]1CSSC[C@H](NC(=O)[C@H](CCCNC(=N)N)NC(=O)[C@H](CCC(=O)O)NC(=O)CC[C@H](NC(=O)CCCCCCCCCCCCCCCCCCC(=O)O)C(=O)O)C(=O)N[C@@H](CC(N)=O)C(=O)N[C@@H]([C@@H](C)O)C(=O)N[C@@H](C)C(=O)N[C@@H]([C@@H](C)O)C(=O)N1)[C@@H](C)O)C(=O)N[C@@H](CC(C)C)C(=O)N1CCC[C@H]1C(=O)N1CCC[C@H]1C(=O)N[C@H](C(=O)N[C@@H](CC(N)=O)C(=O)N[C@H](C(=O)NCC(=O)N[C@@H](CO)C(=O)N[C@@H](CC(N)=O)C(=O)N[C@H](C(=O)N1CCC[C@H]1C(N)=O)[C@@H](C)O)C(C)C)[C@@H](C)O [Example 156, N-alpha-[(S)-4-Carboxy-4-(19-carboxynonadecanoylamino)butyryl]-Glu-[Arg1, Glu14, Arg17, Pro37]-pramlintide] ({C20 diacid-γGlu}-ERCNTATCATQRLAEFLRHSSNNFGPILPPTNVGSNTP-NH2; disulfide 3-8) |
